How the values were obtained:
[1] = target: dopaminergic receptors D2 (Homo sapiens, UniProt P14416); assay: Radioligand binding assay, dopaminergic D2 receptors; conditions: binding assay, test compound 1×10^−6 M
In short: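 Displacement of radioligand from human dopamine D2, D3 or D4.4 receptors, counted by scintillation; specific binding is total minus binding under excess unlabelled ligand. IC50 values come from Hill curve fits of percent inhibition, then converted to Ki by Cheng-Prusoff using Scatchard-derived KD.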

[2] = target: dopaminergic receptors D3 (Homo sapiens, UniProt P35462); assay: Radioligand binding assay, dopaminergic D3 receptors; conditions: test compound 1×10^−6 M
In short: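 Scintillation read-out. Specific = total − nonspecific (excess cold ligand). Data as % of control specific binding / % inhibition; IC50 by Hill fit; Ki = IC50/(1+L/KD), KD from Scatchard plot.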

[3] = target: T1, 5-HT1A receptor (rat hippocampus) (Rattus norvegicus, UniProt P19327); assay: Radioligand binding assay, serotoninergic 5-HT1A receptors; conditions: binding assay result in %, Table 5a;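 also: test compound at 1 µM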
T1 construct: hippocampus; from tissue; host or cells: rat hippocampus
T1 sequence (P19327 1-422): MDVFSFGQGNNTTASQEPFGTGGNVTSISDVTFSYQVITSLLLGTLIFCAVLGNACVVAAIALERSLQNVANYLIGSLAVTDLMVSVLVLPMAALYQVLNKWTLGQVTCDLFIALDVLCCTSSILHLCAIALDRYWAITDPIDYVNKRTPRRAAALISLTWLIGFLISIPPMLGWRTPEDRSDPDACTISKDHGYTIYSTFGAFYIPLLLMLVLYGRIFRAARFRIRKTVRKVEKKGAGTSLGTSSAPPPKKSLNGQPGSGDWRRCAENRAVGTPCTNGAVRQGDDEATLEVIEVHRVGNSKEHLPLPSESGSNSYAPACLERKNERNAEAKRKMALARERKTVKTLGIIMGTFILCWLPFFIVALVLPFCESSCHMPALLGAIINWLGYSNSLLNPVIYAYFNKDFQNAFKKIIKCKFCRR

5-HT2A receptor = target: T2, 5-HT2A receptor (Homo sapiens, UniProt P28223); assay: Radioligand binding assay, serotoninergic 5-HT2A receptors; conditions: binding assay result in %, Table 5a
T2 construct: purchased PerkinElmer
In short: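 Competition curves from scintillation-counted specific binding (total minus binding with excess unlabelled ligand) were Hill-fitted to give IC50, converted to Ki via Cheng-Prusoff using Scatchard-derived Kd.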

5-HT6 receptor = target: T3, 5-HT6 receptor (Homo sapiens, UniProt P50406); assay: Radioligand binding assay, serotoninergic 5-HT6 receptors; conditions: binding assay result in %, Table 5a;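 also: test compound at 1 µM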
T3 construct: purchased PerkinElmer
In short: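 Values are Ki from Cheng–Prusoff, taking IC50 from Hill nonlinear regression of competition curves and KD from a Scatchard plot. Specific binding was total minus binding with excess unlabelled ligand. Radioligand displacement was detected by scintillation counting, and data were also reported as percent of control specific binding.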

5-HT7 receptor = target: T4, 5-HT7 receptor (Homo sapiens, UniProt P34969); assay: Radioligand binding assay, serotoninergic 5-HT7 receptors; conditions: binding assay result in %, Table 5a;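 also: test compound at 1 µM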
T4 construct: purchased PerkinElmer
In short: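 Ki values used the Cheng–Prusoff equation, with KD from Scatchard analysis, applied to IC50 from Hill fits of human 5-HT7 radioligand competition curves. Bound radioligand was counted by scintillation, and excess unlabelled ligand set the non-specific binding.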

[4] = system: α1 adrenergic receptors (rat cerebral cortex); assay: Radioligand binding assay, adrenergic α1 receptors; conditions: test compound 1×10^−6 M
In short: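 Values derive from radioligand displacement, with non-specific binding defined by excess cold ligand and detection by scintillation. Hill-fit IC50s were converted to Ki via Cheng-Prusoff using Scatchard-derived Kd; percent inhibition of control specific binding also reported.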

[5] = target: T5, serotonin transporter (SERT) (Homo sapiens, UniProt P31645); assay: Radioligand binding assay, serotonin transporter (SERT); conditions: binding assay, test compound 1×10^−6 M
T5 construct: expressed in transfected cells; host or cells: CHO cells
In short: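 Values are derived from competition curves fitted by the Hill equation to give IC50, then converted to Ki by Cheng-Prusoff with radioligand Kd from Scatchard analysis. Specific binding equals total minus non-specific (excess cold ligand), counted by scintillation, and is also expressed as percent inhibition of control.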

T5 sequence (P31645 whole entry): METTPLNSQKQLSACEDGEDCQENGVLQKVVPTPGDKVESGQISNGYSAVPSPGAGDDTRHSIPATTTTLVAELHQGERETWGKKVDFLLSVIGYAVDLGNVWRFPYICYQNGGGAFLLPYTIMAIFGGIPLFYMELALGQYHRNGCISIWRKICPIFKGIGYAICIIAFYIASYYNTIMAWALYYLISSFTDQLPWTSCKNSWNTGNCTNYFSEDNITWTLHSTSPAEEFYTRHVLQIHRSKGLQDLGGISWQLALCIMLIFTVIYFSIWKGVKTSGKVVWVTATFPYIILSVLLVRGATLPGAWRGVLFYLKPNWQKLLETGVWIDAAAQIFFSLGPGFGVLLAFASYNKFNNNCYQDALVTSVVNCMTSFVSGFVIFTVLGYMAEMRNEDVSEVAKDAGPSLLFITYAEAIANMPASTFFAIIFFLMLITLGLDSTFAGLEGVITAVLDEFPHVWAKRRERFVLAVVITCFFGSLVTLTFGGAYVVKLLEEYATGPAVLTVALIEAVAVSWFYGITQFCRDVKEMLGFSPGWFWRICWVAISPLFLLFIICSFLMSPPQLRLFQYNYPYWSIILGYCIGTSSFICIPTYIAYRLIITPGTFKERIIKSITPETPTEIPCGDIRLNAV
Sequence of dopaminergic receptors D2 (P14416 whole entry): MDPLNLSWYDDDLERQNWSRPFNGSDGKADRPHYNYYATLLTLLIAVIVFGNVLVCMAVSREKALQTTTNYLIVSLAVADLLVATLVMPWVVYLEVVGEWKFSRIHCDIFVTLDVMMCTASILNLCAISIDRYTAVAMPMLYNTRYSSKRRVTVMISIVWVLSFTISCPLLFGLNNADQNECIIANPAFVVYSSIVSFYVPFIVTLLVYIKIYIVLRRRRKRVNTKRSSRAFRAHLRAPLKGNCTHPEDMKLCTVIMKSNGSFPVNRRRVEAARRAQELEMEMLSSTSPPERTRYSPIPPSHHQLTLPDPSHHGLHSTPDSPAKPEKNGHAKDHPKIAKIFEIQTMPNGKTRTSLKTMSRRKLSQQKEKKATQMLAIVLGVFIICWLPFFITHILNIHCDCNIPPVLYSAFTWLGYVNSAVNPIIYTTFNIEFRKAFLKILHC
T2 sequence (P28223 whole entry): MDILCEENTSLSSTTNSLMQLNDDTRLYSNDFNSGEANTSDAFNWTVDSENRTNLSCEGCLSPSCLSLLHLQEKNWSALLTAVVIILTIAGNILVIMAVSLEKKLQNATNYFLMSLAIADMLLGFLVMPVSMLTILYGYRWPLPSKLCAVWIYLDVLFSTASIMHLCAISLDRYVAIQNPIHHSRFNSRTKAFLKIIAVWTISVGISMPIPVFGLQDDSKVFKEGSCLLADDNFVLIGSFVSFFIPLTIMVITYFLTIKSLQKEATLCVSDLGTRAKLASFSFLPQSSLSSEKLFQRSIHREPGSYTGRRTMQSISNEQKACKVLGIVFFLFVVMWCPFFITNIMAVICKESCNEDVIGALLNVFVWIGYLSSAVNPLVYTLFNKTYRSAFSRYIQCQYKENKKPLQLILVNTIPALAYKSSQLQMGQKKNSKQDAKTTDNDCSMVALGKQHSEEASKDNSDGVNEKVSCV
T4 sequence (P34969 whole entry): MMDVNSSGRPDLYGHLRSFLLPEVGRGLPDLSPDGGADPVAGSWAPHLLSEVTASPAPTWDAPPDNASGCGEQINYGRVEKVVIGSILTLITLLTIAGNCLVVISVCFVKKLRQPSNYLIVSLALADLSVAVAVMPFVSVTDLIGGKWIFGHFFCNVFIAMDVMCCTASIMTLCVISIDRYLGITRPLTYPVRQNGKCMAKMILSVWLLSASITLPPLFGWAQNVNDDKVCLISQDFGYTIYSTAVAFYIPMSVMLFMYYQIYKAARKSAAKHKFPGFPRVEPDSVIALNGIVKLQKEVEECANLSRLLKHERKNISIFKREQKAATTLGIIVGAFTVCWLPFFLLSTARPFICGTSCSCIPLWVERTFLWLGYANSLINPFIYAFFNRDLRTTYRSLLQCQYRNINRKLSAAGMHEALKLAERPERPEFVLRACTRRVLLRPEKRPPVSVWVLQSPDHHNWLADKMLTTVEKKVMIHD
T3 sequence (P50406 whole entry): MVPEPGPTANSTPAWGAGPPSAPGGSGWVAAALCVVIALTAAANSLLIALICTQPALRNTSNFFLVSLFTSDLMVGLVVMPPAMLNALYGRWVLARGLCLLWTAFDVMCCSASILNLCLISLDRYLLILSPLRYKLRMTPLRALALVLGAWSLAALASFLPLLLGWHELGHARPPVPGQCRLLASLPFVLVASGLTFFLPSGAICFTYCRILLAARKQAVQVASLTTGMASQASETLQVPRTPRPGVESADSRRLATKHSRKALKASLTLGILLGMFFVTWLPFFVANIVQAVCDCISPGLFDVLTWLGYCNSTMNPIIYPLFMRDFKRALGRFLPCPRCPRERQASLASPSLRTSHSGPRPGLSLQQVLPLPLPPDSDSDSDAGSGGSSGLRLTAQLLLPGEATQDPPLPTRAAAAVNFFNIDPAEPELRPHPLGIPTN
Sequence of dopaminergic receptors D3 (P35462 whole entry): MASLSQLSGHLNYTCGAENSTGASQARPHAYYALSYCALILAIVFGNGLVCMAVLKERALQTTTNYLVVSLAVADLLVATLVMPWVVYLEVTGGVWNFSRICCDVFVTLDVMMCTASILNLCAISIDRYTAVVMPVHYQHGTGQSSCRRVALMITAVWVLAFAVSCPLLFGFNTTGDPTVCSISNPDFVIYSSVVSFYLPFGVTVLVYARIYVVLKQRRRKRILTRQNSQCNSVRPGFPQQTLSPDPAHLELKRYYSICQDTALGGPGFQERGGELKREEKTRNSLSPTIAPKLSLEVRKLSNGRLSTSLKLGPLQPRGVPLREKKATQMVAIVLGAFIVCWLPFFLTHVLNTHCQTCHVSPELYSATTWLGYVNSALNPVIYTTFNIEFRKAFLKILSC

Compound | inhibition at 1 µM [1] [%] | inhibition at 1 µM [2] [%] | inhibition at 1 µM [3] [%] | inhibition at 1 µM (5-HT2A receptor) [%] | inhibition at 1 µM (5-HT6 receptor) [%] | inhibition at 1 µM (5-HT7 receptor) [%] | α1 [%] [4] [%] | inhibition at 1 µM [5] [%]
O=S(=O)(NCC1CN(CCOc2cccc3c2OCCO3)C1)c1ccc(I)cc1 [Compound 193, N-[[1-[2-(2,3-Dihydro-1,4-benzodioxin-5-yloxy)ethyl]azetidin-3-yl]methyl]-4-iodo-benzenesulphonamide] | 81 | 55 | 84 | 88 | 9 | 92 | 71 | 41
O=S(=O)(NC1CCN(CCCc2noc3cc(F)ccc23)C1)c1ccc2c(c1)OCO2 (stereo not shown) [Compound 194, N-[1-[3-(6-Fluoro-1,2-benzoxazol-3-yl)propyl]pyrrolidin-3-yl]-1,3-benzo-dioxole-5-sulphonamide] | 19 | 48 | 63 | 29 | 53 | 82 | 96 | 1
O=S(=O)(NC1CCN(CCCc2noc3cc(F)ccc23)C1)c1ccc(-c2ccccc2)cc1 (stereo not shown) [Compound 195, N-[1-[3-(6-Fluoro-1,2-benzoxazol-3-yl)propyl]pyrrolidin-3-yl]-4-phenyl-benzenesulphonamide] | 93 | 82 | 47 | 101 | 86 | 86 | 79 | 7
N#Cc1ccc(S(=O)(=O)NC2CCN(CCCc3noc4cc(F)ccc34)C2)cc1 (stereo not shown) [Compound 210, 4-Cyano-N-[1-[3-(6-fluoro-1,2-benzoxazol-3-yl)propyl]pyrrolidin-3-yl]benzenesulphonamide] | 64 | 27 | 8 | 80 | 68 | 80 | 94 | 35
O=S(=O)(NCC1CCN(CCCc2noc3cc(F)ccc23)C1)c1ccc(Cl)c(Cl)c1 (stereo not shown) [Compound 253, 3,4-Dichloro-N-[[1-[3-(6-fluoro-1,2-benzoxazol-3-yl)propyl]pyrrolidin-3-yl]methyl]benzenesulphonamide] | 87 | 55 | 34 | 99 | 101 | 97 | 94 | 12
O=S(=O)(NCC1CCN(CCOc2cccc3ccccc23)C1)c1cc2ccccc2s1 (stereo not shown) [Compound 268, N-[[1-[2-(1-Naphthyloxy)ethyl]pyrrolidin-3-yl]methyl]benzothiophene-2-sulphonamide] | 54 | 93 | 77 | 82 | 84 | 88 | 9 | 85
O=S(=O)(NCC1CCN(CCOc2cccc3ccccc23)C1)c1cc2ccc(Cl)cc2s1 (stereo not shown) [Compound 269, 6-Chloro-N-[[1-[2-(1-naphthyloxy)ethyl]pyrrolidin-3-yl]methyl]-benzothiophene-2-sulphonamide] | 38 | 89 | 60 | 91 | 82 | 98 | −1 | 53
O=S(=O)(NCC1CCN(CCOc2cccc3ccccc23)C1)c1ccc2cc(Cl)ccc2c1 (stereo not shown) [Compound 270, 6-Chloro-N-[[1-[2-(1-naphthyloxy)ethyl]pyrrolidin-3-yl]methyl]naphthalene-2-sulphonamide] | 32 | 91 | 47 | 86 | 86 | 94 | −5 | 15
